Test results published in ChEMBL document CHEMBL1131944, “Phospholipase A2-like catalytic antibody” (Bioorg Med Chem Lett, 1999).

What was measured:
[1] = Compound was tested for the inhibition of antibody-catalyzed hydrolysis.
[2] = The catalytic rate constant in the hydrolysis by 13C-1F6 was determined by Michaelis-Menten Kinetics.; type: ADME
13C-1F6 = test: Michaelis-Menten Kinetic rate constant in the hydrolysis by 13C-1F6 was determined.; type: ADME

| Ki [1] | k cat [2] | Km (13C-1F6) | SMILES |
| --- | --- | --- | --- |
| 10 µM |  |  | CCCCCCCCCCP(=O)(O)OC(COCCCCCCCCCC(=O)OC)COP(=O)([O-])OCC[N+](C)(C)C (stereo not drawn) [ESTER OF PHOSPHOLIPID] |
|  | 0.00017 s⁻¹ | 71 µM | CCCCCCCCCC(=O)OCC(COP(=O)([O-])OCC[N+](C)(C)C)OC(=O)CCCCCCC (racemic) [ESTER OF PHOSPHOLIPID] |
